Laboratory results from patent US20170254803A1, “METHOD FOR THE DETECTION OF ANTIGEN PRESENTATION” (Deutsches Krebsforschungszentrum Stiftung des öffentlichen …, priority 2014, published 2017).
Ends that are not written are not given here.

Experiments:
[1] = tested on: anti-IDH1R132H antibody (H09); assay: IDH1R132H and IDH1 wildtype peptide coated ELISA; format: binding, mouse; settings: 10 μg peptide per well; H09 1:1000; OD at 450 nm (FIG. 1C)
Experimental: ELISA plates (Costar) were coated with IDH1R132H and IDH1wt p118-132, p120-134, p122-136, p124-138, p126-140, p128-142, p130-144, p132-146, p123-142 (10 μg per well in PBS), washed with PBS 0.05% Tween 20, and blocked with 3% FBS in PBS 0.05% Tween 20. As negative controls, MOG p35-55 was used at equal concentrations and peptide diluent PBS 10% DMSO was used at equal volume. As primary antibody monoclonal mouse anti-IDH1R132H (1:1000, H09, Dianova) was used. HRP-conjugated secondary antibody was sheep anti-mouse IgG (1:5000, Amersham). HLA-DRB1*01:01 MHC class II tetramer bound to IDH1R132H p123-142 and HLA-DRB1*01:01 MHC class II tetramer control tetramer bound to CLIP were kindly provided by NIH tetramer core facility and used 1:200 during pre-incubation with H09 for competitive ELISA. Substrate was TMB (ebioscience) and reaction was stopped with 1M H2SO4. OD at 450 nm was measured with an ELISA reader (Thermo Fisher).

[2] = molecular target: HLA-DR in patients' glioma tissue; assay: cell-based or functional assay

binding of anti-IDH1R132H antibody to coated peptide [1]	positivity in the IDH1R132H-MHC class II PLA system (glioma tissue, positivity set to 20 PLA signals per high power field) (of 9 IDH1R132H+ gliomas) [2]	Substance
binds		GWVKPIIIGHHAYGDQYRAT (listed as Homo sapiens) [p123-p142]
	5	IDH1R132H (endogenous, in human glioma tissue) (from UniProt O75874 2-414)
binds		KPIIIGHHAYGDQYR [KPIIIGHHAYGDQYR]
binds		SGWVKPIIIGHHAYG [SGWVKPIIIGHHAYG]
binds		WVKPIIIGHHAYGDQ [WVKPIIIGHHAYGDQ]
